US20160324916A1, “PROCESS FOR THE SYNCHRONIZATION OF OVULATION FOR TIMED BREEDING WITHOUT HEAT DETECTION” (priority 2003, published 2016)

Key:
mature postpartum sows = test: Intravulvar injection at estrus detection in mature postpartum sows, AI breeding (Example 2); format: in vivo, swine; conditions: 50 mcg intravulvar at estrus detection
Protocol: Sows were assigned randomly in blocks of two to either control or to be injected intravulvar with 50 mcg of deslorelin in SAIB at the time of estrus detection for sows first detected in estrus in the a.m. and 12 hours later for those first detected in estrus in the p.m. Treated animals were bred AI upon detected estrus and again 24 hours later if still in estrus. Controls received a saline injection on first detected estrus behavior estrus detection and were bred according to the farm's normal procedures.

postpartum sows = test: Single timed injection 96 hours post-weaning and single timed insemination without estrus detection in postpartum sows (Example 3); format: in vivo, swine; conditions: 50 mcg in SAIB 96 hours post-weaning, single timed insemination, no estrus detection
Protocol: Approximately 170 postpartum sows were randomly divided into two equal groups comprised of controls and treated. Following weaning, the controls were detected for estrus and bred following the normal standard operating procedures for the farms on which they resided. The treated sows received a 50 mcg dose of deslorelin in SAIB at 96 hours post-weaning and were bred with a single insemination 28+/−2 hours later with no regard to estrus detection. The sows were examined for pregnancy by ultrasound at 21 days and slaughtered around 28 days post breeding. The entire reproductive tract was removed and corpora lutea and embryos were counted.

CCNC(=O)[C@@H]1CCCN1C(=O)[C@H](CCCN=C(N)N)NC(=O)[C@H](CC(C)C)NC(=O)[C@@H](Cc1c[nH]c2ccccc12)NC(=O)[C@H](Cc1ccc(O)cc1)NC(=O)[C@H](CO)NC(=O)[C@H](Cc1c[nH]c2ccccc12)NC(=O)[C@H](Cc1cnc[nH]1)NC(=O)[C@@H]1CCC(=O)N1 [Deslorelin, deslorelin]
Pregnancy rates, Control versus Treated (mature postpartum sows): no significant difference
Pregnancy Rate (postpartum sows): 71%
